This is an account of results in patent publication US11357786B2, “Synthetic disugar hydrocarbons as natural analogs to control microbial behaviors” (Syracuse University, priority 2014, dated 2022).

Common to all, as to assay type: cell-based, Pseudomonas aeruginosa
One assay deals with PAO1-GFP. As to the kind of experiment: microbe, parasite or virus in culture. How it is done: A crystal violet (CV) assay was used to measure the amount of PAO1 biofilm formed after 24 h of bacterial inoculation. The fluorescence of green fluorescent proteins (GFP) expressed by PAO1-GFP was measured to directly quantify bacterial adhesion on polystyrene black 96 well plates with and without maltose derivatives after 2 h of bacterial inoculation. To evaluate the potential of maltose derivatives as both anti-biofilm and anti-adhesion agents, they were compared to a brominated furanone (BF8) known to inhibit biofilm formation, and two generic surfactants, sodium dodecyl sulfate (SDS) and tetra (ethylene glycol) monododecyl ether (C12EG4OH). […] P. aeruginosa strain PAO1-EGFP that constitutively producing green fluorescent protein was allowed to form biofilm on sterile steel coupons.
Overnight culture of PAO1-GFP was subcultured to an OD600 of 0.01 into the 95:5 M9+:Lb medium. Subculture was allowed to reach the OD600 of 0.1 in a rotary shaker at 250 rpm and 37° C. 200 μL of the subculture was then transferred to the wells of black microtiter plate with and without (control) maltose derivatives. This black 96 well plate was then incubated in a shaker at 37° C. for 2 h. After 2 h, bacterial culture from the plate was discarded and each well was washed once with saline water (0.85 w/v % aqueous NaCl solution). Fresh 95:5 M9+:Lb medium was added to the black 96 well plate and fluorescence of the surface adhered bacteria was measured by Synergy 2 multi-mode microplate reader with Gen5 data analysis software at an excitation wavelength of 500 nm and an emission wavelength of 540 nm. Background signal from 95:5 M9+:Lb medium was eliminated from all the samples.

A further assay deals with wild type PAO1. As to the kind of experiment: Swarming motility of wild type PAO1 on soft agar (antagonist assay). To be noted: for Swarming of wild type PAO1: 110 μM in soft agar; for Effect on PAO1 swarming: concentration not given; for Concentration of activity reversal for swarming inhibition of PAO1 (transition concentration): soft agar. The method in brief: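 Wild-type PAO1 culture (OD600 ~0.4–0.6, 3 μl) spotted on M8 swarm agar with 0.2% glucose, 0.5% casamino acids, 1 mM MgSO4 and 0.5% agar. Plates incubated 12 h at 37 °C then 12 h at room temperature; swarm area measured by cutting and weighing printed plate images.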

In another assay the test system is 1-day old PAO1 biofilm. As to the kind of experiment: Crystal violet assay for dispersion of 1-day old biofilm, DSHs (Examples 2 and 4).
The mark [1] stands for this setting: Example 2, FIG. 20, read-out: Biofilm dispersion DC50.
[2] abbreviates: Example 4, FIG. 31, read-out: Half-maximal dispersion concentration (DC50).

Where two headings read alike, the source gives them in different places.

Broadly, the inhibition is how much of the control response was suppressed.

As to `CCCCCCCCCCCCOS(=O)(=O)[O-].[Na+]` [SDS, sodium dodecyl sulfate, reference compound], in the assay on PAO1-GFP (Pseudomonas aeruginosa, PAO1, 2 h, read-out: Inhibition of PAO1-EGFP adhesion on polystyrene), the inhibition at 85 µM was approximately 40%.
On to `CC(C)CCCC(C)CCCC(C)CCO[C@H]1O[C@H](CO)[C@@H](O[C@@H]2O[C@H](CO)[C@@H](O)[C@H](O)[C@H]2O)[C@H](O)[C@H]1O` (stereo partly drawn) [SFαC (13), saturated farnesyl-α-cellobioside], for which, in the assay on wild type PAO1 (85 μM in soft agar, 24 h), the “Swarming motility of wild type PAO1” value is on record as “inhibited the swarming motility of wild type PAO1”. In addition, the “Swarming of wild type PAO1” value in the assay with wild type PAO1 (24 h) is “completely inhibited the swarming of wt PAO1”. In addition, the “Effect on PAO1 swarming” value in the assay with wild type PAO1 was “inhibitors for PAO1 swarming motility”. The results for the DC50 in the assay on 1-day old PAO1 biofilm (setting [1]) and in the assay with 1-day old PAO1 biofilm (setting [2]) were approximately 78.4 µM and approximately 89 µM, respectively.
Regarding `CC(C)CCCC(C)CCCC(C)CCO[C@@H]1O[C@H](CO)[C@@H](O[C@@H]2O[C@H](CO)[C@@H](O)[C@H](O)[C@H]2O)[C@H](O)[C@H]1O` (stereo partly drawn) [SFβC (12), saturated famesyl-β-cellobioside], in the assay with wild type PAO1, the “Concentration exhibiting inhibition of PAO1 swarming” value was more than 20 µM. Besides, the “Concentration exhibiting promotion of PAO1 swarming” value in the assay with wild type PAO1 was less than 10 µM. Besides, in the assay on wild type PAO1 (20 μM), the “Swarm ring of wild type PAO1 as percent of PAO1 without DSHs” value is given as approximately 5%. The “Swarming motility of wild type PAO1” value was “did inhibit the swarming activity of wild type PAO1” in the assay with wild type PAO1 (20 μM); “stronger inhibition than rhamnolipids” in the assay on wild type PAO1 (20 μM, listed as 12); “inhibited the swarming motility of wild type PAO1” in the assay with wild type PAO1 (85 μM in soft agar, 24 h). Also, the “Swarm ring area of wild type PAO1” value in the assay with wild type PAO1 (20 μM, control 24 cm2) is approximately 1.2 cm2. Moreover, the “Swarming of wild type PAO1” value is reported as “inhabits the swarming of wt PAO1” with wild type PAO1 (24 h, listed as 12: SFbC) and “completely inhibited the swarming of wt PAO1” in the assay with wild type PAO1 (24 h, listed as 12: SFβC). In addition, the “Effect on PAO1 swarming” value with wild type PAO1 is “inhibitors for PAO1 swarming motility”. For the same compound, the “Concentration of activity reversal for swarming inhibition of PAO1 (transition concentration)” value was approximately 10 to 20 µM in the assay on wild type PAO1 and 10 to 20 µM in the assay on wild type PAO1 (listed as 12). The DC50 with 1-day old PAO1 biofilm (setting [1]) was approximately 36.4 µM; with 1-day old PAO1 biofilm (setting [2]), approximately 44 µM.
As for `CC(C)CCCC(C)CCCC(C)CCO[C@@H]1O[C@H](CO)[C@@H](O[C@H]2O[C@H](CO)[C@@H](O)[C@H](O)[C@H]2O)[C@H](O)[C@H]1O` (stereo partly drawn) [SFβM (14), saturated farnesyl-β-maltoside], the “Concentration at which tendrils were induced in PAO1” value in the assay on wild type PAO1 is approximately 7.5 µM. In addition, the “Swarming motility of wild type PAO1” value is listed as “stronger inhibition than rhamnolipids” in the assay on wild type PAO1 (20 μM) and “inhibited the swarming motility of wild type PAO1” with wild type PAO1 (85 μM in soft agar, 24 h). The “Swarming of wild type PAO1” value in the assay with wild type PAO1 (24 h) is “completely inhibited the swarming of wt PAO1”. The entries for the “Concentration of activity reversal for swarming inhibition of PAO1 (transition concentration)” value in the assay on wild type PAO1 and in the assay on wild type PAO1 (listed as 14) were approximately 7.5 µM and 7.5 µM, respectively. Further, the DC50 in the assay on 1-day old PAO1 biofilm (setting [2]) is approximately 126 µM.
As for `CCCCCCCCCCCCOCCOCCOCCOCCO` [C12EG4OH, tetra (ethylene glycol) monododecyl ether, reference compound], in the assay with PAO1-GFP (85 μM, 2 h), the “Inhibition of PAO1-EGFP adhesion on polystyrene” value was “about 40%”.
